From PubChem BioAssay (NCI)
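Step 1: Grow cells in 96-well plates. Step 2: Expose to compound for 48 hours at 5 concentrations. Step 3: Interpolate endpoints linearly; if unreached, use highest concentration. TGI: total growth inhibition.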

Tests used:
Assay in all cases: growth of human tumour cells (NCI), 48 h
[1] = tested on: UACC-62 melanoma
[2] = tested on: DU-145 prostate
[3] = tested on: 786-0 renal
[4] = tested on: HCC-2998 colon
[5] = tested on: OVCAR-8 ovarian
[6] = tested on: HL-60(TB) leukemia
[7] = tested on: SNB-75 CNS
[8] = tested on: NCI-H522 lung
[9] = tested on: UACC-257 melanoma
[10] = tested on: NCI-H460 lung
[11] = tested on: KM12 colon
[12] = tested on: MALME-3M melanoma
[13] = tested on: SK-OV-3 ovarian
[14] = tested on: SK-MEL-2 melanoma
[15] = tested on: HOP-92 NSCLC
[16] = tested on: HCT-116 colon
[17] = tested on: NCI-H226 lung
[18] = tested on: SF-539 CNS
[19] = tested on: MOLT-4 leukemia
[20] = tested on: EKVX NSCLC

Structure (SMILES)	TGI [1] [µM]	TGI [2] [µM]	TGI [3] [µM]	TGI [4] [µM]	TGI [5] [µM]	TGI [6] [µM]	TGI [7] [µM]	TGI [8] [µM]	TGI [9] [µM]	TGI [10] [µM]	TGI [11] [µM]	TGI [12] [µM]	TGI [13] [µM]	TGI [14] [µM]	TGI [15] [µM]	TGI [16] [µM]	TGI [17] [µM]	TGI [18] [µM]	TGI [19] [µM]	TGI [20] [µM]
CCOC(=O)N1CCN(c2nc(C)n(-c3ccccc3)c(=S)c2C#N)CC1	> 100	> 100	> 100	> 100	> 100	> 66.7	> 79.7	> 66.3	> 100	> 100	> 100	> 100	> 100	> 100	> 100	> 100	> 100	> 100	> 100	> 100
CCOC1(OCC)N=C(N)C2(C#N)C3(C(=O)N(C(C)C)N=C3C)C12C#N (configuration not stated)	> 100	> 100	> 100	> 100	> 100	> 100	> 100	> 100	> 100	> 100	> 100	> 100	> 100	> 100	> 100	> 100	> 100	> 100	> 100	> 100
CC1=CC(=O)[C@@H](O)[C@]2(C)[C@H]3[C@@]4(O)OC[C@@]35[C@@H](C[C@@H]12)OC(=O)C(OC(=O)CC1=CCCC1)[C@H]5[C@@H](C)[C@H]4O (some centres not stated)	0.21	4.66	0.311	0.232	0.139	0.237	0.155	0.0733	0.217	0.133	0.166	0.0666	5.04	0.237	1.15	1.42	0.0632	0.0676	2.53	1.45
COc1ccccc1/C=C/c1c(N)ncnc1Nc1cccc(Cl)c1	33.3	> 100	26.6	> 100	> 100	0.969	23.6	30.5	35	57.1	> 100	59.7		36.5	0.588	86.8	49	35.6	> 100	> 100
CNCCCNC1(c2cc3ccccc3s2)CCCCC1	3.87	24.2	9.87	2.61	28.4	18.9	19.5	19.1	3.35	9.09	16.3	4.57	29.1	10.9	14.8	14.9	36.6	7.37	7.48	26.4
CC(C)(O)CO/N=C1\C(c2c(O)[nH]c3ccccc23)=Nc2ccccc21	2.66	> 22.2	> 44.4	3.27	> 44.4	3.1	9.72	> 47.8	> 96.4	9.71	4.71	> 60.6	2.05	3.2	> 91.6	> 100		10.2	> 43.1	> 36.3
C[C@]12CC[C@H]3[C@@H](CCC4=CC(=O)CC[C@@]43C)[C@@H]1CC[C@@H]2C(=O)Nc1ccc([N+](=O)[O-])c(C(F)(F)F)c1	31.9	42.3	31.2	26.4	90.9	> 100		37.2	> 10	33.4	36.4	31.2	25.4	33.2	58.2	32.2	39	33.5	70.8	27.8
O=C1N=NC(=O)N1c1cc(C(F)(F)F)cc(C(F)(F)F)c1	18.3	> 40	17	14.7	13.7	> 100	11.7	9.13	12.2	13.4	18.2	14.2	16.2	5.57	8.25	12.2	12.4	20.7	40.3	33.2
CCCNC(=O)Cn1c(C)cc2ccccc21	> 100	> 100	> 100	> 100	> 100	> 100	> 100	> 100	> 100		> 100	> 100	> 100	> 100	> 100	> 100	> 100	> 100	> 100	> 100
O=Nc1sc(=N\O)/c(=N/O)sc1NO	> 100	> 100	> 100	> 100	> 100	> 100	> 100	> 100	> 100	> 100	> 100	> 100	> 100	> 100	> 100	> 100	> 100	> 100	> 100	> 100
OCCCc1cc(O)c2c(c1)C(CO)C(c1ccc(O)c(O)c1)O2 (configuration not stated)	> 100	> 100	> 100	> 100	> 100	> 100		> 100	> 100	> 100	> 100	> 100	> 100	> 100	> 100	> 100	> 100	> 100	> 100	> 100
CC(C)(C)C1(O)C=C(O)C(=O)N1NC(=O)c1ccccc1Nc1ccccc1 (configuration not stated)	63	> 100	> 100	62.9	> 100	7.25	> 100	81.2	72.2	> 100	> 100	> 100	> 100	> 100	> 100	> 100	> 100	> 100	29	> 100
COC(=O)C1(Cc2cccc(C)c2)Cc2c(C)cccc2C1=O (configuration not stated)	> 100	> 100	> 100	> 100	> 100	> 100	> 100	73.3	> 100	> 100	> 100	> 100	> 100	> 100	> 100	> 100	> 100	> 100	> 100	> 100
COc1cc(C2S/C(=C/c3ccccc3)C(=O)N2c2cc(Cl)c(Cl)cc2Cl)cc(OC)c1OC (configuration not stated)	> 100	> 100	> 100	> 100	> 100	> 77.2	19.1	> 66.5	> 100	> 100	> 78.3	> 84.4	> 100	> 100	> 74.6	> 75	> 100	> 100	> 72.4	> 88.6
CSc1ccc(-c2cc(-c3nc4ccccc4[nH]3)nc(N)c2C#N)cc1	26	66.9	> 100	33.1	> 100	48.9	57.8	46.8	39.4	72.5	71.2	44.5	> 100	34.2	42.9	42.7	79.5	86	37.1	> 100
CCOC(=O)c1[nH]cc(C)c1-c1c[nH]c2ccccc12	> 100	> 100	> 100	> 100	> 100	> 100	90.7	> 81.8	> 100	> 87.5	> 100	> 100	> 100	> 93	> 74.4	> 53.2	67.6	> 100	27.9	> 100
O=[N+]([O-])c1ccc(N/N=C(\c2ccccc2)c2ccccn2)nc1	> 54.3	36.8	23.4	> 59.6	23.8	31.7	28.4	12.7	29.8	22.8	> 45.8	14.4	24	> 94.9	43.8	29.8		15.3	> 67.2	17.3
COc1cc([C@H]2CC(=O)C[C@@H](c3cc(OC)c(OC)c(OC)c3)C23C(=O)c2ccccc2C3=O)cc(OC)c1OC	> 100	> 100	> 100	> 100	> 100	> 100	> 100	> 100	> 100	> 100	> 100	> 100	> 100	> 100	> 100	> 100	> 100	> 100	> 100	> 100
COc1cc2c(cc1OC)-c1c(oc3cc(OC4OC(CO)C(O)C(O)C4O)c(OC)cc3c1=O)C(O)O2 (configuration not stated)	> 100	> 100	> 100	> 100	> 100	> 100	> 100	> 100	> 100	> 100	> 100	> 100	> 100	> 100	> 100	> 100	> 100	> 100		> 100
CCCC(=O)NC(C(=O)OCC)(N1CCOCC1)C(F)(F)F (configuration not stated)	> 100	> 100	> 100	> 100	> 100	> 100	> 100	> 100	> 100		> 100	> 100	> 100	> 100	> 100	> 100	> 100	> 100	> 100	> 100
CSc1nc2c(c(=O)[nH]1)N=C(c1ccc(Cl)cc1)CC(c1ccccc1)N2 (configuration not stated)		42.1	30	28.8	31.4	39.6	24.7	29.4	34.3		30	42.8		31.7	38.7	51.4	58.7	33.3	61.8	40.9
O=C1C(c2c(O)[nH]c3ccccc23)=Nc2ccc(Br)cc21	54	> 100	28.8	> 100	49.4	> 100	34.9	> 100	> 100	> 100	> 100	> 100	> 100	93.9	50.4	> 100	68.1		40.8	61.1
CC1OC(OC2C(CO)OC(O[C@H]3CC[C@@]4(C)C(=CC[C@H]5[C@@H]6C[C@@H]7O[C@](O)(CC[C@H](C)COC8OC(CO)C(O)C(O)C8O)[C@@H](C)[C@@H]7[C@@]6(C)CC[C@@H]54)C3)C(OC3OC(C)C(O)C(O)C3O)C2O)C(O)C(O)C1O (some centres not stated)	> 50.4	5.92	5.72	> 37.9	28.9	> 100	4.78	7.53	> 49.9	> 45.7	5.69	18.9	6.12	20	12.7	> 32.1	85	> 21.6		> 100
